Laboratory results: paper PMC7504721, “Targeting the Initiator Protease of the Classical Pathway of Complement Using Fragment-Based Drug Discovery” (Molecules, 2020)
pKd: −log10 of the molar value.

Biological target: T1, full-length C1r (Homo sapiens, UniProt P00736)
T1 construct: purchased Complement Technology (CompTech)
T1 sequence (P00736 18-463 limits assumed): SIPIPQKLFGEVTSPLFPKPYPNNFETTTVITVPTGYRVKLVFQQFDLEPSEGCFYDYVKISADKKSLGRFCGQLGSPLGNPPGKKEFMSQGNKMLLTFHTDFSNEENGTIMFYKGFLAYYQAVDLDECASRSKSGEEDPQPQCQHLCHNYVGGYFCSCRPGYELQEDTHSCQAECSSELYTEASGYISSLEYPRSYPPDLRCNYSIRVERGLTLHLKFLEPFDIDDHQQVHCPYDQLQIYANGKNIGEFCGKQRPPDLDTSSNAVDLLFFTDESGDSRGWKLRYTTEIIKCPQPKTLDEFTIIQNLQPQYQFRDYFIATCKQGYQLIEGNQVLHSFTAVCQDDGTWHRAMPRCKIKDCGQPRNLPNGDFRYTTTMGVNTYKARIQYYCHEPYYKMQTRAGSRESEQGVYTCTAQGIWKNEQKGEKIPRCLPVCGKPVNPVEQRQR
T1 sequence (P00736 464-705 limits assumed): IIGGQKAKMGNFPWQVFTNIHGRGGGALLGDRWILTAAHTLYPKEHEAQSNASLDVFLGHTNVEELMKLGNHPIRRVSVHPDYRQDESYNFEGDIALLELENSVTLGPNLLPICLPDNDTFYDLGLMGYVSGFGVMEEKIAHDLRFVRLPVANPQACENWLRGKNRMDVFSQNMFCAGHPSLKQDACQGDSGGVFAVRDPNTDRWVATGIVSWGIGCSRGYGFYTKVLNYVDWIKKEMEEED
Experiment: SPR dose-dependent binding, steady-state affinity
Conditions: for pKd: 1:1 steady-state binding model, mean ± S.D. from three independent injection series, 25 °C; for Ligand efficiency (LE): LE = ΔG/number of non-hydrogen atoms, ΔG = -RT x ln KD,C1r, using KD values of Fig. 3
Procedure: All SPR experiments were carried out using a Biacore T200 (GE Healthcare, Chicago, IL, USA) at 25 °C. For all experiments, a running buffer (HBS-T) of 20 mM HEPES (pH 7.3), 140 mM NaCl, 0.005% (v/v) Tween-20, 5% DMSO (v/v) was used. For each experiment, DMSO calibration curves ranging from 4% to 5.5% DMSO (v/v) were collected at the beginning, end, and every 50 cycles throughout the duration of the experiment. All experiments were performed using HC1500M sensor chips (Xantec, Duesseldorf, Germany). In total, 10 sensor chips and 16 ligand immobilized surfaces were created over the course of this study (detailed in Table S2). In all cases, C1r proteins were immobilized onto chip surfaces using amine-coupling chemistry with 1-ethyl-3-(3-dimethylaminopropyl)-carbodiimide) (EDC), N-hydroxysuccinimide (NHS), followed by ethanolamine. Briefly, 100 mM of EDC and NHS were mixed and injected to activate the chip surface followed by the C1r protein ligand captured at a defined resonance unit (RU) level, followed by reaction quenching with 100 mM ethanolamine pH 8.5. Flow cell 1 was always used as a reference cell (no ligand), unless otherwise noted. All sensorgrams were reference and blank subtracted and analyzed using T200 Evaluation Software (GE Healthcare, Chicago, IL, USA).
To further evaluate hit compounds from the initial SPR screen, dose-dependent SPR binding assays were carried out. Three replicate flow cells were used containing both low and high immobilization densities of C1r (see Table S2). Hit compounds were tested for dose-dependent binding to full-length C1r using a compound concentration range of 7.8–500 µM. T200 evaluation software was used to calculate steady-state affinities for each compound by fitting sensorgrams from each variable concentration injection dataset using a 1:1 Langmuir model of interaction constrained by a theoretical experimental binding response based on the mol. wt. of each compound and derived as stated above. KD values are reported as the mean ± the standard deviation from at least three independent measurements.

Compound | pKd | Ligand efficiency (LE)
CN(C)c1cc(N2CCCC(N)C2)ncn1 (centres unmarked) [CMP-1611] | 3.32 | 0.28
N=C(N)c1ccc2cc(OC(=O)c3ccc(N=C(N)N)cc3)ccc2c1 [Futhan, reference compound] | 4.96 | 
COCc1nc(-c2ccc(OC3CNC3)cc2)no1 [CMP-1696] | 3.17 | 0.22
